Laboratory results reported in ChEMBL document CHEMBL4130375, “Design, synthesis and biological evaluation of 4-amidobenzimidazole acridine derivatives as dual PARP and Topo inhibitors for cancer therapy” (Eur J Med Chem, 2017).
Activity calls are given as the source filed them. The rule behind the calls is not given here.

Experiments:
[1] = molecular target: Poly [ADP-ribose] polymerase 1 (Homo sapiens, UniProt P09874); assay: Inhibition of PARP1 (unknown origin) assessed as reduction in biotinylated poly(ADP-ribose) incorporation on to histone protein by ELISA based colorimetric assay
Sequence of Poly [ADP-ribose] polymerase 1 (P09874 whole entry): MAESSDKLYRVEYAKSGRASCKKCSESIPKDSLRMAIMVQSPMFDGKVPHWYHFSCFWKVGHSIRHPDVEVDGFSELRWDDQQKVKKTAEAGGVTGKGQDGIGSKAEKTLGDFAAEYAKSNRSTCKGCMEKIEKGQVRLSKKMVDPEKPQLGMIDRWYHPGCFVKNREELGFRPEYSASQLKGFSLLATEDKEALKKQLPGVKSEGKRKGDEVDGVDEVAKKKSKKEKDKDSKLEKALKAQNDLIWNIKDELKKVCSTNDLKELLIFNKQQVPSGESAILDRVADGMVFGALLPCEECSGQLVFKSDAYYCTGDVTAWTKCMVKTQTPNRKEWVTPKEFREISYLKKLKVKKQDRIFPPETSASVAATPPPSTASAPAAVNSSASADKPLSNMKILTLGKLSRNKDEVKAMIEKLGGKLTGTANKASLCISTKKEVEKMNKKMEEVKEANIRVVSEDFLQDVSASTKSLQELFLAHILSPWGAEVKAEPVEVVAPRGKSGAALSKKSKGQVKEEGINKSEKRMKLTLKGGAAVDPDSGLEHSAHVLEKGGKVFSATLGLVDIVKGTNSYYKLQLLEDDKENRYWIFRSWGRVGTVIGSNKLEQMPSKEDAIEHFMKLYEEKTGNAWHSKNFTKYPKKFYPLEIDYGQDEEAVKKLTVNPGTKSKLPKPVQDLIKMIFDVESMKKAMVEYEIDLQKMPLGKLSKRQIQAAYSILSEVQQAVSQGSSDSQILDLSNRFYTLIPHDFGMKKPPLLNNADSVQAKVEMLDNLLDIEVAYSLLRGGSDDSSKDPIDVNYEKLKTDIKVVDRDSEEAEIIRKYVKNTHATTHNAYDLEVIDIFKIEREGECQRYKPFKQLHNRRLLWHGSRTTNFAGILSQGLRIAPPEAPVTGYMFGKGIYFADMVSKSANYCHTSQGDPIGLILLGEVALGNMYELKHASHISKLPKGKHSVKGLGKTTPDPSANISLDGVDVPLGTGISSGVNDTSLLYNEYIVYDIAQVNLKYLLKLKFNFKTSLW

MCF7 [2] = assay: Potency index, ratio of olaparib IC50 to compound IC50 for human MCF7 cells; type: functional
HCC1937 = assay: Antiproliferative activity against human HCC1937 cells harboring BRCA1 mutant after 72 hrs by MTT assay; type: functional, cell-based; details: HCC1937, 72 h
[3] = molecular target: T1, DNA topoisomerase 1 (Homo sapiens) (UniProt P11387); assay: Inhibition of human topoisomerase-1 at 2 to 100 uM using supercoiled pBR322 DNA as substrate after 10 to 15 mins by ethidium bromide staining based electrophoresis method
T1 sequence (whole entry): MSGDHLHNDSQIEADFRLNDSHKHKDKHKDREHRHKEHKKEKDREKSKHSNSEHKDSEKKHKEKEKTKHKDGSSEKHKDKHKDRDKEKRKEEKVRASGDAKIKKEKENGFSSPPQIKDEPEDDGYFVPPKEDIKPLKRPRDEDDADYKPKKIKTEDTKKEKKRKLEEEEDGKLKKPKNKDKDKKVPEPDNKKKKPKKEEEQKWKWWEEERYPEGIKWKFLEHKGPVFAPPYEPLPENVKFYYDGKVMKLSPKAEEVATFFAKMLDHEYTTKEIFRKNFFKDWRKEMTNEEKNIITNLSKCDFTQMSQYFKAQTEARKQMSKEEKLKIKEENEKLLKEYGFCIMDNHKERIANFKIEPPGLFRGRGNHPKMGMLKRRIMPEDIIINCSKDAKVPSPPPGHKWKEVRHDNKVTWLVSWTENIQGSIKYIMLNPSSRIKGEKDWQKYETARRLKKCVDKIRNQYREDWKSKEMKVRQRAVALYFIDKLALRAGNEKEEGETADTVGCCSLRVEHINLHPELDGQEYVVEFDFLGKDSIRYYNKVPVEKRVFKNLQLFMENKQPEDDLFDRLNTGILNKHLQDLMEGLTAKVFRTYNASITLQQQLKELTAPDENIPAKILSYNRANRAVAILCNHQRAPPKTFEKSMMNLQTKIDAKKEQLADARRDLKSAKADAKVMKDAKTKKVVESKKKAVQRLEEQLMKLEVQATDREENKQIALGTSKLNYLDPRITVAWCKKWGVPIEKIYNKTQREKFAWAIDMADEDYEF

[4] = molecular target: DNA topoisomerase 2-alpha (Homo sapiens) (UniProt P11388); assay: Inhibition of human topoisomerase-2 at 100 uM using supercoiled pBR322 DNA as substrate after 10 to 15 mins by ethidium bromide staining based electrophoresis method
Sequence of DNA topoisomerase 2-alpha (Homo sapiens) (P11388 whole entry): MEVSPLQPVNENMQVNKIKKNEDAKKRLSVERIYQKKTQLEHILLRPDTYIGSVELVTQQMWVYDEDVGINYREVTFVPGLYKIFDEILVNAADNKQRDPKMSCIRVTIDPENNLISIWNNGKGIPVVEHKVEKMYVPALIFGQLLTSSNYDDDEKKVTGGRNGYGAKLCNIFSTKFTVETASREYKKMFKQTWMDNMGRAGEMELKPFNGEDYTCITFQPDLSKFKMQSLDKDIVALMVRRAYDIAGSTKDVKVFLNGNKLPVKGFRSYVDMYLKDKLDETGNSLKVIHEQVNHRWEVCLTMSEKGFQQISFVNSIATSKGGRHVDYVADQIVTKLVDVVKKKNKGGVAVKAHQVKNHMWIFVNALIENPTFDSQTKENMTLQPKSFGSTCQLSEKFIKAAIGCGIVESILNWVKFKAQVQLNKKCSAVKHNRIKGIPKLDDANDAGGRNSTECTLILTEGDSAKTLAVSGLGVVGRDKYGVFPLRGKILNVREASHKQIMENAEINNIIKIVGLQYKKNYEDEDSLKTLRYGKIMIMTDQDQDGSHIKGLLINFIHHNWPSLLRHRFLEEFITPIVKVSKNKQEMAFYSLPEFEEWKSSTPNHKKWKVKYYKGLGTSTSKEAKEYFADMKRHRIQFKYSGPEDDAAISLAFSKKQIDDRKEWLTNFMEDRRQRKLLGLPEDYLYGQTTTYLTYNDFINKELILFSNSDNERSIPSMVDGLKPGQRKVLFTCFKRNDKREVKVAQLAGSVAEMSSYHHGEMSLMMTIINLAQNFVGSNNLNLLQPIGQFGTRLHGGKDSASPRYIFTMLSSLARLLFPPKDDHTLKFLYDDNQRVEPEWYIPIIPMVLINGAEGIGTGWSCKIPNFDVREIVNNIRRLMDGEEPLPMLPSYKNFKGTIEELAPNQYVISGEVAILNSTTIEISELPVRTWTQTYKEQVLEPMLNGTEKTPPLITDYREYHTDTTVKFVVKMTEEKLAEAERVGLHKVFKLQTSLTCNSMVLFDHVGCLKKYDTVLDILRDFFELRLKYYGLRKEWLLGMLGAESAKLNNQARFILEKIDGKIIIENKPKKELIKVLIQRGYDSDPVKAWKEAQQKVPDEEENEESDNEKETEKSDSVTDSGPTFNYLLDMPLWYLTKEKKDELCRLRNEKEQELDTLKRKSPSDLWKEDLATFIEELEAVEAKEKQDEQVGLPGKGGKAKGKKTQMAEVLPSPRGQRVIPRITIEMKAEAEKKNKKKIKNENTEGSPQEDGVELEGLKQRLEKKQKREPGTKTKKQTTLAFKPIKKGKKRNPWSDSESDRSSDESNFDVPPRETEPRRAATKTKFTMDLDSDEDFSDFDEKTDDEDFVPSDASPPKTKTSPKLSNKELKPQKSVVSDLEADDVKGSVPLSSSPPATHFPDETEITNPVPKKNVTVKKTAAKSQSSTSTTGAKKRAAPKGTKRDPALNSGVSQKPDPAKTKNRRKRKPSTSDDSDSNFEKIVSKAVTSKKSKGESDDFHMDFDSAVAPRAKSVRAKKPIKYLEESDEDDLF

[5] = molecular target: T1, DNA topoisomerase 1 (Homo sapiens); assay: Inhibition of topoisomerase-1 in human MCF7 cells assessed as enzyme-DNA cleavage complex formation by measuring decrease in topoisomerase-1 protein expression after 24 hrs by Western blot analysis; type: cell-based
MCF7 [6] = assay: Induction of DNA double strand breaks in human MCF7 cells assessed as increase in gammaH2AX level after 24 hrs by Western blot analysis; type: functional, cell-based
MCF7 [7] = assay: Induction of apoptosis in human MCF7 cells assessed as live cells at 1 uM after 48 hrs by Annexin V-FITC/propidium iodide staining based flow cytometry (reference value: 99.9%); type: functional
MCF7 [8] = assay: Induction of apoptosis in human MCF7 cells assessed as early apoptotic cells at 1 uM after 48 hrs by Annexin V-FITC/propidium iodide staining based flow cytometry (reference value: 0.108%); type: functional
MCF7 [9] = assay: Induction of apoptosis in human MCF7 cells assessed as necrotic cells at 1 uM after 48 hrs by Annexin V-FITC/propidium iodide staining based flow cytometry (reference value: 0%); type: functional
MCF7 [10] = assay: Induction of apoptosis in human MCF7 cells assessed as live cells at 5 uM after 48 hrs by Annexin V-FITC/propidium iodide staining based flow cytometry (reference value: 99.9%); type: functional
MCF7 [11] = assay: Induction of apoptosis in human MCF7 cells assessed as necrotic cells at 5 uM after 48 hrs by Annexin V-FITC/propidium iodide staining based flow cytometry (reference value: 0%); type: functional
MCF7 [12] = assay: Induction of apoptosis in human MCF7 cells assessed as early apoptotic cells at 10 uM after 48 hrs by Annexin V-FITC/propidium iodide staining based flow cytometry (reference value: 0.108%); type: functional
MCF7 [13] = assay: Upregulation of cleaved PARP protein expression in human MCF7 cells after 24 hrs by Western blot method; type: functional, cell-based
MCF7 [14] = assay: Downregulation of full length PARP protein expression in human MCF7 cells up to 10 uM after 24 hrs by Western blot method; type: functional, cell-based
MCF7 [15] = assay: Cell cycle arrest in human MCF7 cells assessed as accumulation at S phase at 1 uM after 24 hrs by propidium iodide staining based flow cytometry (reference value: 59.72 +/- 2.98%); type: functional
MCF7 [16] = assay: Cell cycle arrest in human MCF7 cells assessed as accumulation at G2/M phase at 1 uM after 24 hrs by propidium iodide staining based flow cytometry (reference value: 22.61 +/- 1.55%); type: functional
MCF7 [17] = assay: Cell cycle arrest in human MCF7 cells assessed as accumulation at S phase at 5 uM after 24 hrs by propidium iodide staining based flow cytometry (reference value: 59.72 +/- 2.98%); type: functional
MCF7 [18] = assay: Cell cycle arrest in human MCF7 cells assessed as accumulation at G2/M phase at 10 uM after 24 hrs by propidium iodide staining based flow cytometry (reference value: 22.61 +/- 1.55%); type: functional
MCF7 [19] = assay: Cell cycle arrest in human MCF7 cells after 24 hrs by propidium iodide staining based flow cytometry; type: functional
MCF7 [20] = assay: Upregulation of p27 protein expression in human MCF7 cells after 24 hrs by Western blot method; type: functional, cell-based
MCF7 [21] = assay: Downregulation of CDK2 protein expression in human MCF7 cells up to 10 uM after 24 hrs by Western blot method; type: functional, cell-based
MCF7 [22] = assay: Downregulation of CDK4 protein expression in human MCF7 cells up to 10 uM after 24 hrs by Western blot method; type: functional, cell-based
MCF7 [23] = assay: Antitumor activity against human MCF7 cells xenografted in mouse assessed as tumor growth inhibition at 20 to 40 mg/kg/day, ip measured on day 30 post initial treatment; type: functional, organism-based
[24] = Intrinsic clearance in rat liver microsomes at 1.11 uM preincubated for 5 mins followed by NADPH addition by LC-MS/MS analysis; type: ADME, microsome; details: read-out: CLH
MCF7 [25] = assay: cells; details: Homo sapiens, MCF7, 72 h
Cytochrome P450 2D6 = Cytochrome P450 2D6 (Homo sapiens, UniProt P10635); assay: Inhibition of CYP2D6 in human liver microsomes preincubated for 10 mins followed by NADPH/substrate addition measured after 20 mins by LC-MS/MS analysis
Sequence of Cytochrome P450 2D6 (P10635 whole entry): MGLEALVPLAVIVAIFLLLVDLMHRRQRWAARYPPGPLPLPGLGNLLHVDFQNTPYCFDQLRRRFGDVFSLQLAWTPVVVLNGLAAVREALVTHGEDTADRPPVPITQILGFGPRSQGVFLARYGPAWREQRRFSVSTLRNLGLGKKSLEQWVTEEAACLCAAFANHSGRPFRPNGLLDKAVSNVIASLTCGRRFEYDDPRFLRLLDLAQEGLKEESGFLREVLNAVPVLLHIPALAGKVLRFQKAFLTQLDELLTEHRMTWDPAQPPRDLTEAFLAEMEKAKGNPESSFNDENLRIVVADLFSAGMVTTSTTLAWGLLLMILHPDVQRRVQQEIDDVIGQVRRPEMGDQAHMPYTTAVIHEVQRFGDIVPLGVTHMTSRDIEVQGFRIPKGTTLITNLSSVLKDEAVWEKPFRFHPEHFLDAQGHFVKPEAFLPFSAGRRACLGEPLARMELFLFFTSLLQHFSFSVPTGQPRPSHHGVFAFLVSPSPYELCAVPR

Cytochrome P450 3A4 = Cytochrome P450 3A4 (Homo sapiens, UniProt P08684); assay: Inhibition of CYP3A4 in human liver microsomes preincubated for 10 mins followed by NADPH/substrate addition measured after 20 mins by LC-MS/MS analysis
Sequence of Cytochrome P450 3A4 (P08684 whole entry): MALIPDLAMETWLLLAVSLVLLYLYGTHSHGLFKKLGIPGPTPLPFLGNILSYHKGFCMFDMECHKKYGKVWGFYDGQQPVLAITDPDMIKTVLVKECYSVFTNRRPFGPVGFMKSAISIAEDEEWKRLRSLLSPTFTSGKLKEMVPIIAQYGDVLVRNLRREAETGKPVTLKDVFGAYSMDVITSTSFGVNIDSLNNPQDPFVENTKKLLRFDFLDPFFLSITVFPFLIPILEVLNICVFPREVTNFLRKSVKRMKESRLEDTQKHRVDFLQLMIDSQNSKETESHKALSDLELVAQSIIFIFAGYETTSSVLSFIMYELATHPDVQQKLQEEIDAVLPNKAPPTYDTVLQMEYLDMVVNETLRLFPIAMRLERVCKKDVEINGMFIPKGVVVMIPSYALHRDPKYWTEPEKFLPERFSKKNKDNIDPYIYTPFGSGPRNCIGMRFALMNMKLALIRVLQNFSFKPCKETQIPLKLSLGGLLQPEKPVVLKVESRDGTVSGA

Question: What does the source list for `Cc1cccc2c(Nc3cccc(-c4nc5c(C(N)=O)cccc5[nH]4)c3)c3ccccc3nc12`?
Answer: IC50 [1]: 450 nM; Ratio IC50 (MCF7 [2]): 17; IC50 (HCC1937): 830 nM; inhibition [3]: Active; inhibition [4]: Active; inhibition [5]: Dose-dependent effect; Activity (MCF7 [6]): Dose-dependent effect; Activity (MCF7 [7]): 42.9%; Activity (MCF7 [8]): 34.4%; Activity (MCF7 [9]): 0.531%; Activity (MCF7 [10]): 39.1%; Activity (MCF7 [11]): 0.641%; Activity (MCF7 [12]): 9.58%; Activity (MCF7 [13]): Dose-dependent effect; Activity (MCF7 [14]): Active; Activity (MCF7 [15]): 58.27%; Activity (MCF7 [16]): 21.76%; Activity (MCF7 [17]): 42.32%; Activity (MCF7 [18]): 10.83%; Activity (MCF7 [19]): Dose-dependent effect; Activity (MCF7 [20]): Dose-dependent effect; Activity (MCF7 [21]): Active; Activity (MCF7 [22]): Active; TGI (MCF7 [23]): Active; microsomal CLint at 1.11 µM [24]: 28.4 µL/min/mg; IC50 (MCF7 [25]): 2140 nM; IC50 (Cytochrome P450 2D6): > 10 µM; IC50 (Cytochrome P450 3A4): 6.8 µM
